Results: ChEMBL document CHEMBL1144685, “Naphthamides as novel and potent vascular endothelial growth factor receptor tyrosine kinase inhibitors: design, synthesis, and evaluation” (J Med Chem, 2008)

How the values were obtained:
[1] = Clearance in dog at 1 mg/kg, iv; format: ADME, organism-based, Canis lupus familiaris; design: dose 1 mg/kg, route intravenous; conditions: in vivo
[2] = Volume of distribution at steady state in mouse at 3 mg/kg, iv; format: ADME, organism-based; design: dose 3 mg/kg, route intravenous; conditions: in vivo, read-out: Vdss
[3] = Mean retention time in dog at 1 mg/kg, iv; format: ADME, organism-based, Canis lupus familiaris; design: dose 1 mg/kg, route intravenous; conditions: in vivo
[4] = Oral bioavailability in cynomolgus monkey at 10 mg/kg, po; format: ADME, organism-based, Macaca fascicularis; conditions: in vivo
[5] = Mean retention time in mouse at 3 mg/kg, iv; format: ADME, organism-based; design: dose 3 mg/kg, route intravenous; conditions: in vivo
[6] = Clearance in mouse at 3 mg/kg, iv; format: ADME, organism-based; design: dose 3 mg/kg, route intravenous; conditions: in vivo
[7] = Oral bioavailability in mouse at 10 mg/kg, po; format: ADME, organism-based; conditions: in vivo
[8] = Volume of distribution at steady state in cynomolgus monkey at 1 mg/kg, iv; format: ADME, organism-based, Macaca fascicularis; design: dose 1 mg/kg, route intravenous; conditions: in vivo, read-out: Vdss
[9] = Volume of distribution at steady state in dog at 1 mg/kg, iv; format: ADME, organism-based, Canis lupus familiaris; design: dose 1 mg/kg, route intravenous; conditions: in vivo, read-out: Vdss
[10] = Mean retention time in cynomolgus monkey at 1 mg/kg, iv; format: ADME, organism-based, Macaca fascicularis; design: dose 1 mg/kg, route intravenous; conditions: in vivo
[11] = Half life in dog at 1 mg/kg, iv; format: ADME, organism-based, Canis lupus familiaris; design: dose 1 mg/kg, route intravenous; conditions: in vivo
[12] = Oral bioavailability in dog at 10 mg/kg; format: ADME, organism-based, Canis lupus familiaris; conditions: in vivo
[13] = Half life in mouse at 3 mg/kg, iv; format: ADME, organism-based; design: dose 3 mg/kg, route intravenous; conditions: in vivo
[14] = Clearance in cynomolgus monkey at 1 mg/kg, iv; format: ADME, organism-based, Macaca fascicularis; design: dose 1 mg/kg, route intravenous; conditions: in vivo
[15] = Half life in cynomolgus monkey at 1 mg/kg, iv; format: ADME, organism-based, Macaca fascicularis; design: dose 1 mg/kg, route intravenous; conditions: in vivo
NIH3T3 = assay: Inhibition of CSF1-induced proliferation of BALB/c mouse 3T3 cells; format: functional, cell-based
[16] = Clearance in Sprague-Dawley rat at 2 mg/kg, iv; format: ADME, organism-based; design: dose 2 mg/kg, route intravenous; conditions: in vivo
NHDF = assay: Inhibition of PDGF-induced proliferation of NHDF cells; format: functional, cell-based; conditions: Homo sapiens
Cytochrome P450 2D6 = Cytochrome P450 2D6 (Homo sapiens, UniProt P10635)
[17] = Cmax in human HT29 cell xenografted CD1 nu/nu mouse at 30 mg/kg, po; format: ADME, organism-based, HT-29; design: dose 30 mg/kg, route oral; conditions: in vivo
[18] = Protein binding in rat plasma; format: ADME, cell-free; conditions: read-out: PPB (converted)
Aurora kinase B = Aurora kinase B (Homo sapiens, UniProt Q96GD4); assay: Inhibition of Aurora B
[19] = Cmax in human HT29 cell xenografted CD1 nu/nu mouse at 3 mg/kg, po; format: ADME, organism-based, HT-29; design: dose 3 mg/kg, route oral; conditions: in vivo
[20] = Inhibition of Erk phosphorylation in human A375 cells; format: cell-based; conditions: A-375
HUVEC [21] = assay: Inhibition of FGF-induced proliferation of HUVEC cells; format: functional, cell-based; conditions: Homo sapiens
[22] = molecular target: Serine/threonine-protein kinase B-raf (Homo sapiens, UniProt P15056, V600E); assay: Inhibition of b-Raf V600E
[23] = AUC (0 to 24 hrs) in human HT29 cell xenografted CD1 nu/nu mouse at 3 mg/kg, po; format: ADME, organism-based, HT-29; design: time < 24 hr, dose 3 mg/kg, route oral; conditions: in vivo
[24] = Protein binding in dog plasma; format: ADME, cell-free, Canis lupus familiaris; conditions: read-out: PPB (converted)
HUVEC [25] = assay: cells; conditions: Homo sapiens
Description: Inhibition of bFGF-induced proliferation of HUVEC cells

[26] = Intrinsic clearance in rat liver microsomes; format: ADME, Microsome
[27] = molecular target: Fibroblast growth factor receptor 2 (Homo sapiens, UniProt P21802); assay: Inhibition of FGFR2
[28] = Inhibition of anti-CD3-induced proliferation of human T cells; format: functional, cell-based; conditions: T-cell
Mus musculus = assay: Antitumor activity against human HT29 cell xenografted CD1 nu/nu mouse assessed as inhibition of tumor growth at 3 mg/kg, po; format: functional; conditions: CD1, HT-29
[29] = AUC (0 to 24 hrs) in Sprague-Dawley rat at 5 mg/kg, po; format: ADME, organism-based; design: time < 24 hr, dose 5 mg/kg, route oral; conditions: plasma
[30] = AUC (0 to 24 hrs) in human HT29 cell xenografted CD1 nu/nu mouse at 30 mg/kg, po; format: ADME, organism-based, HT-29; design: time < 24 hr, dose 30 mg/kg, route oral; conditions: in vivo
[31] = Intrinsic clearance in human liver microsomes; format: ADME, Microsome
Plasma [32] = assay: Plasma concentration in BALB/c mouse at 3 mg/kg, po; format: ADME, organism-based; design: dose 3 mg/kg, route oral; conditions: in vivo
[33] = Cmax in Sprague-Dawley rat at 5 mg/kg, po; format: ADME, organism-based; design: dose 5 mg/kg, route oral; conditions: in vivo
Plasma [34] = assay: Plasma concentration in CD1 nu/nu mouse at 100 mg/kg, po; format: ADME, organism-based; design: dose 100 mg/kg, route oral; conditions: in vivo
[35] = AUC in VEGF soaked disk implanted Sprague-Dawley rat; format: ADME, organism-based; conditions: plasma
[36] = Oral bioavailability in Sprague-Dawley rat at 5 mg/kg; format: ADME, organism-based; conditions: in vivo
Liver microsomes = assay: Metabolic stability assessed as covalent binding in human liver microsomes; format: ADME, Microsome
Rattus norvegicus = assay: Inhibition of VEGF-induced angiogenesis in VEGF soaked disk implanted Sprague-Dawley rat cornea assessed as number of blood vessels intersecting the midpoint between the disk and limbus after 7 days; format: functional; conditions: 168 h
[37] = AUC (0 to 24 hrs) in human HT29 cell xenografted CD1 nu/nu mouse at 10 mg/kg, po; format: ADME, organism-based, HT-29; design: time < 24 hr, dose 10 mg/kg, route oral; conditions: in vivo
[38] = Cmax in human HT29 cell xenografted CD1 nu/nu mouse at 10 mg/kg, po; format: ADME, organism-based, HT-29; design: dose 10 mg/kg, route oral; conditions: in vivo
[39] = molecular target: Vascular endothelial growth factor receptor 3 (Homo sapiens, UniProt P35916)
Cytochrome P450 3A4 = Cytochrome P450 3A4 (Homo sapiens, UniProt P08684)
[40] = Mean retention time in Sprague-Dawley rat at 2 mg/kg, iv; format: ADME, organism-based; design: dose 2 mg/kg, route intravenous; conditions: in vivo
[41] = molecular target: Macrophage colony-stimulating factor 1 receptor (Homo sapiens, UniProt P07333); assay: Inhibition of c-FMS
Plasma [42] = assay: Plasma concentration in CD1 nu/nu mouse at 30 mg/kg, po; format: ADME, organism-based; design: dose 30 mg/kg, route oral; conditions: in vivo
[43] = Protein binding in mouse plasma; format: ADME, cell-free; conditions: read-out: PPB (converted)
[44] = Inhibition of histone H3 phosphorylation in human HeLa cells; format: cell-based
Plasma [45] = assay: Plasma concentration in BALB/c mouse at 10 mg/kg, po; format: ADME, organism-based; design: dose 10 mg/kg, route oral; conditions: in vivo
[46] = molecular target: Vascular endothelial growth factor receptor 1 (Homo sapiens, UniProt P17948)
[47] = Volume of distribution at steady state in Sprague-Dawley rat at 2 mg/kg, iv; format: ADME, organism-based; design: dose 2 mg/kg, route intravenous; conditions: in vivo, read-out: Vdss
[48] = molecular target: Tyrosine-protein kinase Lck (Homo sapiens, UniProt P06239)
[49] = Half life in Sprague-Dawley rat at 2 mg/kg, iv; format: ADME, organism-based; design: dose 2 mg/kg, route intravenous; conditions: in vivo
Plasma [50] = assay: Plasma concentration in BALB/c mouse at 30 mg/kg, po; format: ADME, organism-based; design: dose 30 mg/kg, route oral; conditions: in vivo
[51] = Cmax in VEGF soaked disk implanted Sprague-Dawley rat; format: ADME, organism-based; conditions: in vivo

Cytochrome P450 3A4, sequence (P08684 whole entry): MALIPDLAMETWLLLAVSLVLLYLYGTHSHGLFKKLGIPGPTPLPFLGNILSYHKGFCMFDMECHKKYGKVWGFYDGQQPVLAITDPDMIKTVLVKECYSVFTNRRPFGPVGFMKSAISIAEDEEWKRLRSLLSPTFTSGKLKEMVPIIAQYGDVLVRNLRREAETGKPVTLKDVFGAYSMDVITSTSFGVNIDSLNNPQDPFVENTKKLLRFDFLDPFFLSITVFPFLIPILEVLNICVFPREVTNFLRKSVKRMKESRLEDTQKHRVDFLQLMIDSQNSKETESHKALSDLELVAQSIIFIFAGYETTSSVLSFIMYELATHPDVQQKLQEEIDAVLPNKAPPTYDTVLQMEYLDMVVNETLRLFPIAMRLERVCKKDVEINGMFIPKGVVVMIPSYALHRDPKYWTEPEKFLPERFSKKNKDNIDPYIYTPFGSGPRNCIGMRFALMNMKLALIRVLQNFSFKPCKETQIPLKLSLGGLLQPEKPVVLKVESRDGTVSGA
Aurora kinase B, sequence (Q96GD4 whole entry): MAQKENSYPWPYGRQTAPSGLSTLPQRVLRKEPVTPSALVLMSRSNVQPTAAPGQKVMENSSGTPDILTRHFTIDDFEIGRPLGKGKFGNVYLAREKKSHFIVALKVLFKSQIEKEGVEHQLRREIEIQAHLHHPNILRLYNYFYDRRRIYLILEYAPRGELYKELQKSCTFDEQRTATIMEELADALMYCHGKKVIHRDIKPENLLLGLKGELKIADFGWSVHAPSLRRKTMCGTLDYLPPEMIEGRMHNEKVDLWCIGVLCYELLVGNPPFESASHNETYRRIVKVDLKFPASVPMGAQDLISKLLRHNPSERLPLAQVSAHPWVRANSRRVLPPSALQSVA
Tyrosine-protein kinase Lck, sequence (P06239 whole entry): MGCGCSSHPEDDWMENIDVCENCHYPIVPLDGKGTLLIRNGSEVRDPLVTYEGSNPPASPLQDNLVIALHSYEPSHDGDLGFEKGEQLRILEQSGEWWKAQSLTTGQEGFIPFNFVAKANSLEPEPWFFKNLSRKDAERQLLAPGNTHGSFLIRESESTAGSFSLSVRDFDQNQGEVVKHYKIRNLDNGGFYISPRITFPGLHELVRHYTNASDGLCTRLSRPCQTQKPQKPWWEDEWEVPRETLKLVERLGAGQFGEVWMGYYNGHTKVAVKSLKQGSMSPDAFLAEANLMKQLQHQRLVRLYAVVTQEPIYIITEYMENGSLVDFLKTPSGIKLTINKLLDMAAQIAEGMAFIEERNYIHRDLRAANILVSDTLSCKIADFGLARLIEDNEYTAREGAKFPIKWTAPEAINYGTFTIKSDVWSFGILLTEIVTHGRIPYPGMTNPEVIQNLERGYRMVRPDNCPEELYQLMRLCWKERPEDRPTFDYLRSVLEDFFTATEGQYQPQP
Serine/threonine-protein kinase B-raf, sequence (P15056 2-766 V600E limits assumed): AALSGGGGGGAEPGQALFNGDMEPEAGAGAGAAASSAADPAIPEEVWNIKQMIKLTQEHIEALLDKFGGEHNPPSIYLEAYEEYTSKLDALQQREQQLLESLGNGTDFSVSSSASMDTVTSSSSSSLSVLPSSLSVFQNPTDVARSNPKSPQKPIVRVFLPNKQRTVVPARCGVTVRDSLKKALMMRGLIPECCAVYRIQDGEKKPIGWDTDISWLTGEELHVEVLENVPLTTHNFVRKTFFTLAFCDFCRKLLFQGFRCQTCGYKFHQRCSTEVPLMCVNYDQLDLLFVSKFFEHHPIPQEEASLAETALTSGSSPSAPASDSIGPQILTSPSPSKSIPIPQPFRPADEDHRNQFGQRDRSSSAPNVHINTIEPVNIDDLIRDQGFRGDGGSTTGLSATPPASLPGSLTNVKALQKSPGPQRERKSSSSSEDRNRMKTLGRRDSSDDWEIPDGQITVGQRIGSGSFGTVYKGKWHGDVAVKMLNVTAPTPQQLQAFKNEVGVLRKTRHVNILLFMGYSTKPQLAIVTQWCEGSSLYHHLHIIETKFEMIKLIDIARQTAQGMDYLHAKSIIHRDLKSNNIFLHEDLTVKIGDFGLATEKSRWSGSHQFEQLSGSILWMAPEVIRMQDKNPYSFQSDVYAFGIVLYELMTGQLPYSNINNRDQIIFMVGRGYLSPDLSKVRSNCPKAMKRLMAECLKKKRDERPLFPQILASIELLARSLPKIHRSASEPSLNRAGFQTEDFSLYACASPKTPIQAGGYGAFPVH
Vascular endothelial growth factor receptor 1, sequence (P17948 whole entry): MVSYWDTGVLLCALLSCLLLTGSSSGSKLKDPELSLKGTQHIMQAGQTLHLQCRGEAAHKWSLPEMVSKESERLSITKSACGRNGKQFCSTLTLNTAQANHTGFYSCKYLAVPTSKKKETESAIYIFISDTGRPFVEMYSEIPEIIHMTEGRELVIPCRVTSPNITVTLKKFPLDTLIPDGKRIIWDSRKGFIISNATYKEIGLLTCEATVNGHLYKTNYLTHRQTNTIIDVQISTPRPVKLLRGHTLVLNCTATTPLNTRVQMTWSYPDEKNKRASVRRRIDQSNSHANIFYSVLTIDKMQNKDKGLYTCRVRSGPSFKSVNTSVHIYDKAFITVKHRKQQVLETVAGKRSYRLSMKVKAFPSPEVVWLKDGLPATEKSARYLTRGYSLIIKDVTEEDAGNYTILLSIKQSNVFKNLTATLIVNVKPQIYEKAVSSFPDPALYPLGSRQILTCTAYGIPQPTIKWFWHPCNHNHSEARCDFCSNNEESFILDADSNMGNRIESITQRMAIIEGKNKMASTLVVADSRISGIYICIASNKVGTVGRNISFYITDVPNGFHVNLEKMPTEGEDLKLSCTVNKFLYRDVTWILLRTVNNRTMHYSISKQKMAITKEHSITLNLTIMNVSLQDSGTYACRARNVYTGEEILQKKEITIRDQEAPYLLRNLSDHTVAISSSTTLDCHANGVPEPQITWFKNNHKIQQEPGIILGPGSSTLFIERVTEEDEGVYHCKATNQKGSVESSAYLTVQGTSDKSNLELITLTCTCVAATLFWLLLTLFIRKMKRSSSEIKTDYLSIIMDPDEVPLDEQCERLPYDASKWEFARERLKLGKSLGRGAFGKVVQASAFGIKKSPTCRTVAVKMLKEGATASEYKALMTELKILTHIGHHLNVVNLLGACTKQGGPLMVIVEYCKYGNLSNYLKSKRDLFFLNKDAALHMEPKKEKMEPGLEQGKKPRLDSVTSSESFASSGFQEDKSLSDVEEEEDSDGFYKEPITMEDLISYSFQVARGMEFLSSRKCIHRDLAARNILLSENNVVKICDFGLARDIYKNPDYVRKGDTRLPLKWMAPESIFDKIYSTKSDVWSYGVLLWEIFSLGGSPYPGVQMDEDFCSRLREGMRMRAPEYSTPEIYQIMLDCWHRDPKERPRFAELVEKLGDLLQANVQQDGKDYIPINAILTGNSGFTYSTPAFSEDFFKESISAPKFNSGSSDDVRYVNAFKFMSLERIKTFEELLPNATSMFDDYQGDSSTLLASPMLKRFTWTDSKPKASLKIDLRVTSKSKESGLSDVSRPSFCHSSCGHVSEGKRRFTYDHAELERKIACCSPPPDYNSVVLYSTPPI
Cytochrome P450 2D6, sequence (P10635 whole entry): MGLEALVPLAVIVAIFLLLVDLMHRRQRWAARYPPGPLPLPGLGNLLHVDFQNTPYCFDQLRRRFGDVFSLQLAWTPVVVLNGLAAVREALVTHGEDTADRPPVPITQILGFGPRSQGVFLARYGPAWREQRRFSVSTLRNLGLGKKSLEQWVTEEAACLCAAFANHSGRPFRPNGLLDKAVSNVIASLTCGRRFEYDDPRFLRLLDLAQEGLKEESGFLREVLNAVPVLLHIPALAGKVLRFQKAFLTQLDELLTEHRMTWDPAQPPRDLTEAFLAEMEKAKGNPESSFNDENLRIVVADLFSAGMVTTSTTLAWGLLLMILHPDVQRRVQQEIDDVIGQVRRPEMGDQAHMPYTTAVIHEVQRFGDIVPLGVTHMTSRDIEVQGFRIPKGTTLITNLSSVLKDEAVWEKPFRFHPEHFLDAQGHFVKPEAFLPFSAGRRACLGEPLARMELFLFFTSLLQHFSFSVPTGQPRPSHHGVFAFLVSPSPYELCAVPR
Macrophage colony-stimulating factor 1 receptor, sequence (P07333 whole entry): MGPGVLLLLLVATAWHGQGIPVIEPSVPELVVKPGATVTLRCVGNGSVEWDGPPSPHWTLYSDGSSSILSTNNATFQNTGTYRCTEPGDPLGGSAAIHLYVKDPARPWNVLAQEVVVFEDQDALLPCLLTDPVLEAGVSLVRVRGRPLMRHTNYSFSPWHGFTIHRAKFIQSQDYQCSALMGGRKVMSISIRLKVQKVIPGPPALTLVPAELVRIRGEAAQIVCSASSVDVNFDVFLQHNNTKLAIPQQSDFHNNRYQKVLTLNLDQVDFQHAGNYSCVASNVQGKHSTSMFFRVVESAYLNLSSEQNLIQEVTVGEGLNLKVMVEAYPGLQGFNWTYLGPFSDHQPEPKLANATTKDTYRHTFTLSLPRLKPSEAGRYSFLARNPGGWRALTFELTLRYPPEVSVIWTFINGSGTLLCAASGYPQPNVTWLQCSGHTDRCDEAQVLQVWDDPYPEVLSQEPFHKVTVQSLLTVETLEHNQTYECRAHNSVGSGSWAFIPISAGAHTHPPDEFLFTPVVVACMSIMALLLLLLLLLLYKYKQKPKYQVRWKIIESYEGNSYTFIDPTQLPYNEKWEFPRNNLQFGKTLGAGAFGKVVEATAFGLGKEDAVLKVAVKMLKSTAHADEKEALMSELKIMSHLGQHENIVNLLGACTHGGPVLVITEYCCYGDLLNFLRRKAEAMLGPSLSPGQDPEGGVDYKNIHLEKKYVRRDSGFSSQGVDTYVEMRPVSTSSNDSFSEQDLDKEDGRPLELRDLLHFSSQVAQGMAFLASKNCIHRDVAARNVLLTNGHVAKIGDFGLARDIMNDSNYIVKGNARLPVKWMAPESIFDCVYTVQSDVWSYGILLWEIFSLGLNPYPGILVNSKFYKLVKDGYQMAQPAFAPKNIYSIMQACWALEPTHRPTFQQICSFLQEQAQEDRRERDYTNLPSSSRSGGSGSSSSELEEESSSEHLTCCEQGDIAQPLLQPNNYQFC

SMILES: COc1cc2nccc(Oc3ccc4c(C(=O)Nc5ccc(Cl)cc5)cccc4c3)c2cc1OC.CS(=O)(=O)O
- clearance [1]: 1.67 mL/min/kg
- Vd [2]: 4.8 L/kg
- MRT [3]: 66 h
- bioavailability [4]: 62%
- MRT [5]: 23 h
- clearance [6]: 3.33 mL/min/kg
- bioavailability [7]: 24%
- Vd [8]: 4.3 L/kg
- Vd [9]: 6.7 L/kg
- MRT [10]: 22 h
- half-life [11]: 48 h
- bioavailability [12]: 72%
- half-life [13]: 17 h
- clearance [14]: 3.33 mL/min/kg
- half-life [15]: 56 h

SMILES: COc1cc2nccc(Oc3ccc4c(C(=O)Nc5ccc(Cl)cc5)cccc4c3)c2cc1OC
- IC50 (NIH3T3): 25 nM
- clearance [16]: 3.33 mL/min/kg
- IC50 (NHDF): 25 nM
- IC50 (Cytochrome P450 2D6): > 50000 nM
- Cmax [17]: 3900 nM
- fraction unbound [18]: 0.02
- IC50 (Aurora kinase B): > 1000 nM
- Cmax [19]: 500 nM
- IC50 [20]: > 1000 nM
- IC50 (HUVEC [21]): > 1140 nM
- IC50 [22]: 40 nM
- AUC(0-t) at 24 h [23]: 6.2 µM·h
- fraction unbound [24]: 0.026
- IC50 (HUVEC [25]): > 1100 nM
- microsomal CLint [26]: 50 µL/min/mg
- IC50 [27]: > 20000 nM
- IC50 [28]: > 20000 nM
- inhibition in vivo at 3 mg/kg (Mus musculus): 74%
- AUC(0-t) at 24 h [29]: 5250 ng·h/mL
- AUC(0-t) at 24 h [30]: 48.4 µM·h
- microsomal CLint [31]: 30 µL/min/mg
- concentration (Plasma [32]): 160 nM
- Cmax [33]: 420 ng/mL
- concentration (Plasma [34]): 10300 nM
- AUC [35]: 1.3 µM·h
- bioavailability [36]: 21%
- Stability (Liver microsomes): < 100 pM/mg/h
- ED50 (Rattus norvegicus): 0.1 mg/kg
- AUC(0-t) at 24 h [37]: 24.1 µM·h
- Cmax [38]: 2200 nM
- IC50 [39]: 2 nM
- IC50 (Cytochrome P450 3A4): > 50000 nM
- MRT [40]: 31 h
- IC50 [41]: 20 nM
- concentration (Plasma [42]): 4000 nM
- fraction unbound [43]: 0.014
- IC50 [44]: 1100 nM
- concentration (Plasma [45]): 490 nM
- IC50 [46]: 0.5 nM
- Vd [47]: 7.3 L/kg
- IC50 [48]: 38 nM
- half-life [49]: 24 h
- concentration (Plasma [50]): 1500 nM
- Cmax [51]: 200 nM
